Test results from article PMC10088020, “AA16 Oxidoreductases Boost Cellulose-Active AA9 Lytic Polysaccharide Monooxygenases from Myceliophthora thermophila” (ACS Catalysis, 2023).

What was measured:
AnAA16A = molecular target: T1, AnAA16A (Aspergillus nidulans, UniProt Q5BFA2); assay: H2O2 production, ferric-xylenol orange assay; type: biochemical; conditions: 1 mM Pyg as reductant, O2; pH 5.0, 30 °C
T1 construct: gene ANIA_00778; catalytic domain; C-terminal extension (residues 199-306) removed, native signal peptide used for secretion; C-terminal His-tag cut with TEV; Pichia pastoris X-33; N-terminal His not methylated; Cu(II)-saturated
T1 sequence (Q5BFA2 20-198): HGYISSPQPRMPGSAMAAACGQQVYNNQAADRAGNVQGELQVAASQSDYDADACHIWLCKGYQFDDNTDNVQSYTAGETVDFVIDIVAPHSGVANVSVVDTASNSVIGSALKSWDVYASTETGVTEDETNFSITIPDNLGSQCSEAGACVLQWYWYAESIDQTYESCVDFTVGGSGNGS

MtAA16A [1] = molecular target: T2, MtAA16A (Thermothelomyces thermophilus, UniProt G2QH80); assay: thermal shift (nDSF); conditions: may reflect reduction of the active-site copper rather than binding (authors)
T2 construct: gene MYCTH_2306267; mature secreted protein, homologously produced in M. thermophila C1; signal peptide removed; N-terminal His methylated; Cu(II)-saturated
T2 sequence (G2QH80 entry or part of it): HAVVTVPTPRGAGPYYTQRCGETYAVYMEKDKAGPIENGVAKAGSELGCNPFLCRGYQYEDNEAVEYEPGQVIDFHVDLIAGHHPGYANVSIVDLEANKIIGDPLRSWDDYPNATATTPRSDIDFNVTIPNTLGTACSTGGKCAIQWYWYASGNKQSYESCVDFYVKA

MtAA16A [2] = molecular target: T2, MtAA16A; assay: H2O2-driven oxidation to coerulignone ([…],6-DMP assay); type: biochemical; conditions: co-substrate H2O2; Cu(II)-saturated enzyme

Question: For Oc1cccc(O)c1O [pyrogallol], which “H2O2 production, ferric-xylenol orange assay” value (AnAA16A) is on record?
Answer: The value was “we observed accumulation of H2O2 in MtAA16A-Pyg and AnAA16A-Pyg samples”.

Question: What does the source list for COc1cccc(OC)c1O [syringol, 2,6-dimethoxyphenol]?
Answer: thermal stabilization (MtAA16A [1]): syringol induced significant thermal stabilization (Figure S8), which is consistent with binding; H2O2-driven oxidation to coerulignone (2,6-DMP assay) (MtAA16A [2]): MtAA16A is a copper-dependent enzyme able to oxidize syringol in the presence of H2O2
